Measured values from ChEMBL document CHEMBL1177872, “Inhibitors of the RET tyrosine kinase based on a 2-(alkylsulfanyl)-4-(3-thienyl)nicotinonitrile scaffold” (Eur J Med Chem, 2010).

How the values were obtained:
[1] = system: ARO; experiment: Antiproliferative activity against human RET deficient ARO cells after 72 hrs by [3H]thymidine incorporation assay
[2] = target: Tyrosine-protein kinase ABL1 (Homo sapiens, UniProt P00519)
Description: Inhibition of human recombinant histidine-tagged ABL (230-517) expressed in Sf9 cells by ELISA

[3] = cells; settings: Homo sapiens, LS174T
Description: Antiproliferative activity against human RET deficient LS 174T cells after 72 hrs by [3H]thymidine incorporation assay

[4] = system: TPC1; experiment: Antiproliferative activity against human TPC1 cells expressing RET/PCT1 after 72 hrs by [3H]thymidine incorporation assay

Tyrosine-protein kinase ABL1, sequence (P00519 whole entry): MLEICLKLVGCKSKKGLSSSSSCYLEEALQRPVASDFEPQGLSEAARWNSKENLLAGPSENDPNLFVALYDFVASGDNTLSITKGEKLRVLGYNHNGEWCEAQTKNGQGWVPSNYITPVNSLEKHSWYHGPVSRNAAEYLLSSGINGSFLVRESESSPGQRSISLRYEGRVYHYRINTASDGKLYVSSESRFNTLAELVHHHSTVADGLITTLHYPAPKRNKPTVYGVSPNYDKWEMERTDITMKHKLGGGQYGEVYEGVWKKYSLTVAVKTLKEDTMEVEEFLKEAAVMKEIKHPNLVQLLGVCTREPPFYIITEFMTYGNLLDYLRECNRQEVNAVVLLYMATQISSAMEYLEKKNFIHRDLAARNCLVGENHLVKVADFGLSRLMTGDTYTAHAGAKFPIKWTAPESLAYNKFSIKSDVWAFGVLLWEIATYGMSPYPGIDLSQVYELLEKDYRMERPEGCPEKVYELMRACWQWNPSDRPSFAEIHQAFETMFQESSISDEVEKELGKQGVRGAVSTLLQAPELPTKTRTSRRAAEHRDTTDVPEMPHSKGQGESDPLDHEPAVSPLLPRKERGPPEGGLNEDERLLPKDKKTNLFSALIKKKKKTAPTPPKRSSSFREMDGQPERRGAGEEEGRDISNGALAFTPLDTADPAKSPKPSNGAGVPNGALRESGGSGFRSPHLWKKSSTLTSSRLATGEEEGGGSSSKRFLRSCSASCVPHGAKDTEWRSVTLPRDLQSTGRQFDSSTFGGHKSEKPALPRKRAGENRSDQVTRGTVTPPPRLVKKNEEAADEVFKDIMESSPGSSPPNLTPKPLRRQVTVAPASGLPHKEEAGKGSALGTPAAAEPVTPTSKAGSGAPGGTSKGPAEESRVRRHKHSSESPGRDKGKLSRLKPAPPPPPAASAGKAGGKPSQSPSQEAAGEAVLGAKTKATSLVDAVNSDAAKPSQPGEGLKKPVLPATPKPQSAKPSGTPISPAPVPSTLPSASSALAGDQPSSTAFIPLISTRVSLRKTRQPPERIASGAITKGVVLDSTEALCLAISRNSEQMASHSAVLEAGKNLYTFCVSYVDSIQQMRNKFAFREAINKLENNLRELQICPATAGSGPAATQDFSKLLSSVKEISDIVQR

Compound	IC50 [1] [µM]	IC50 [2] [µM]	IC50 [3] [µM]	IC50 [4] [µM]
N#Cc1c(SCc2ccc(F)cc2)nc2c(c1-c1cccs1)CCCC2	> 300	74	> 300	101
N#Cc1c(SCC(=O)c2ccccc2)nc2c(c1-c1ccsc1)CCCC2		> 150	> 300	> 300
N#Cc1c(N)nc(SCC(=O)c2ccccc2)c(C#N)c1-c1ccsc1	> 300	0.29	> 300	> 300
N#Cc1c(SCc2ccccc2)nc2c(c1-c1cccs1)CCCC2	8.5	72	6.2	17
N#Cc1c(N)nc(SCC(=O)c2ccc(Cl)cc2)c(C#N)c1-c1ccsc1	159	60	92	28
COc1cc2/c(=N/c3ccc(Br)cc3F)nc[nH]c2cc1OCC1CCN(C)CC1 [VANDETANIB]				0.116
